This is an account of results in patent US20250382344A1, “Soluble GLP1/GIP/NPY2 Receptor Triple Agonists” (Boehringer Ingelheim International GmH, priority 2024, published 2025).

Read-outs that look alike come from different tables or passages of the source. *1 amine or outer side, *2 acyl side, *3 side chain or, on linkers, in order; H or OH if unused. Where a SMILES comes first, the peptide text is derived from it. Side-chain parts run from the residue outwards. [ ]: non-standard residue; d: D form. The star is where a group is joined. C18 diacid = O=C(O)CCCCCCCCCCCCCCCCC(=O)*; γGlu = O=C(O)[C@H](CCC(=O)[*:2])N[*:1]; Aib = CC(C)(N)C(=O)O

One series concerns the target T1, hGLP1R (Homo sapiens, UniProt P43220).
T1 construct: expressed in transfected cells; host or cells: HEK-293 CRE-luciferase reporter cells
Nature of the series: hGLP1R CreLuc assay in 0.5% and 100% plasma (HEK-293 CRE-luciferase reporter cells). The format is cell-based. The conditions noted are these: HEK-293 reporter cells. (In general: Reporter assays use an easily measured gene product as a stand-in for the process of interest.)

A further series has as its target T2, hGIPR (Homo sapiens, UniProt P48546).
T2 construct: expressed in transfected cells; host or cells: CHO CRE-luciferase reporter cells
T2 sequence (P48546 22-466): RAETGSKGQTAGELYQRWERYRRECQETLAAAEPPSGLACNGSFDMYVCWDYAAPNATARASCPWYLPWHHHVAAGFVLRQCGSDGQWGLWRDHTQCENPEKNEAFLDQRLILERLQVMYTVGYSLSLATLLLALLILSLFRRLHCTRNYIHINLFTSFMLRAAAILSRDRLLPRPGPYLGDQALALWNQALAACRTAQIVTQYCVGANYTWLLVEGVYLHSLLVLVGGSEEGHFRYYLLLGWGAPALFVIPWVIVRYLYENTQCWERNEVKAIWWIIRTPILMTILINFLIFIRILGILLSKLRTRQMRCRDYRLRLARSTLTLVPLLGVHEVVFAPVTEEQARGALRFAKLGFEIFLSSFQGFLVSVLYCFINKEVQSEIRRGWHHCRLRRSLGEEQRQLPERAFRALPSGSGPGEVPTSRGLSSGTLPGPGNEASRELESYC
The experiment in a line: hGIPR CreLuc assay in 0.5% and 100% plasma (CHO CRE-luciferase reporter cells). The format is cell-based.

Series [1] is described as follows: Solubility in 0.1 M phosphate buffer at pH 7. The conditions noted are these: 0.1 M phosphate buffer at pH 7, 10 mg/mL final peptide concentration, shaking 2 hours at room temperature, peptides as TFA-salts, measured sample pH 6.5-7.0. The format is physicochemical.
[2] abbreviates: 0.5% human plasma, read-out: hGLP1R 0.5% hP.
Setting [3] is: 100% human plasma, read-out: hGLP1R 100% hP.
Where [4] appears, read: 0.5% human plasma, read-out: hGIPR 0.5% hP.

T1 sequence (P43220 24-463): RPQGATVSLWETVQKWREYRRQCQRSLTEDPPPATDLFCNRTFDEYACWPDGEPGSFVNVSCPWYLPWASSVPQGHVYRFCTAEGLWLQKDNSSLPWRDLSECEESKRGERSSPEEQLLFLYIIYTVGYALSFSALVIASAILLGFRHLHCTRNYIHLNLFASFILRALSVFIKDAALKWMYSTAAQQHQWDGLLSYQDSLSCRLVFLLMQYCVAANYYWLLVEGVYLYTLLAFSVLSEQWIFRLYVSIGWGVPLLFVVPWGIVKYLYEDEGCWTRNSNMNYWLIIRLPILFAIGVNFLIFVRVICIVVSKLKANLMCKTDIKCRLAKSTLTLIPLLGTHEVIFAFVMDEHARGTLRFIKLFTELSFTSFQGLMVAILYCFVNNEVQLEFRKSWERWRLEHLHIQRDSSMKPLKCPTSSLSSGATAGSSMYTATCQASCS

A word on the solubility: it is the concentration that dissolves in the medium under given conditions. Take `CC[C@H](C)[C@H](NC(=O)[C@H](CC(C)C)NC(=O)[C@H](C)NC(=O)[C@H](CCCNC(=N)N)NC(=O)[C@@H](NC(=O)[C@H](Cc1ccccc1)NC(=O)[C@H](C)NC(=O)C(C)(C)NC(=O)[C@H](CCC(N)=O)NC(=O)[C@H](C)NC(=O)[C@H](CCC(N)=O)NC(=O)[C@H](CCCCN)NC(=O)[C@H](CCC(=O)O)NC(=O)[C@H](CC(C)C)NC(=O)C(C)(C)NC(=O)[C@@H](NC(=O)[C@H](CO)NC(=O)[C@H](Cc1ccc(O)cc1)NC(=O)[C@H](CC(=O)O)NC(=O)[C@H](CO)NC(=O)[C@@H](NC(=O)[C@H](Cc1ccccc1)NC(=O)[C@@H](NC(=O)CNC(=O)[C@H](CCC(=O)O)NC(=O)C(C)(C)NC(=O)[C@@H](N)Cc1ccc(O)cc1)[C@@H](C)O)[C@@H](C)O)[C@@H](C)CC)C(C)C)C(=O)N[C@@H](CC(N)=O)C(=O)N[C@@H](CCCCNC(=O)[C@@H](N)CCCCNC(=O)CC[C@H](NC(=O)CC[C@H](NC(=O)CC[C@H](NC(=O)CC[C@H](NC(=O)CC[C@H](NC(=O)CC[C@H](NC(=O)CCCCCCCCCCCCCCCCC(=O)O)C(=O)O)C(=O)O)C(=O)O)C(=O)O)C(=O)O)C(=O)O)C(=O)NC(C)(C)C(=O)N[C@H](C(=O)N[C@@H](CCCNC(=N)N)C(=O)N[C@@H](CCC(N)=O)C(=O)N[C@@H](CCCNC(=N)N)C(=O)N[C@@H](Cc1ccc(O)cc1)C(N)=O)[C@@H](C)O` [Compound 128, Y-Aib-E-G-T-F-T-S-D-Y-S-I-Aib-L-E-K-Q-A-Q-Aib-A-F-V-R-A-L-I-N-K(1,3)-Aib-T-R-Q-R-Y-NH2.C18DA-gGlu-gGlu-gGlu-gGlu-gGlu-gGlu-eLys(1,2)]: the EC50 came out at 700 pM on hGLP1R (setting [2]), 4000 pM at hGLP1R (setting [3]) and 200 pM at hGIPR (setting [4]). Moreover, in series [1], the solubility at 2 h came to 4100 µg/mL.

Consider `CC[C@H](C)[C@H](NC(=O)[C@H](CC(C)C)NC(=O)[C@H](Cc1c[nH]cn1)NC(=O)[C@H](CCCNC(=N)N)NC(=O)[C@@H](NC(=O)[C@H](Cc1ccccc1)NC(=O)[C@H](CCC(=O)O)NC(=O)C(C)(C)NC(=O)[C@H](CCC(N)=O)NC(=O)[C@H](C)NC(=O)[C@H](CCC(N)=O)NC(=O)[C@H](CCC(=O)O)NC(=O)[C@H](CCC(=O)O)NC(=O)[C@H](CC(C)C)NC(=O)C(C)(C)NC(=O)[C@@H](NC(=O)[C@H](CO)NC(=O)[C@H](Cc1ccc(O)cc1)NC(=O)[C@H](CC(=O)O)NC(=O)[C@H](CO)NC(=O)[C@@H](NC(=O)[C@H](Cc1ccccc1)NC(=O)[C@@H](NC(=O)CNC(=O)[C@H](CCC(=O)O)NC(=O)C(C)(C)NC(=O)[C@@H](N)Cc1ccc(O)cc1)[C@@H](C)O)[C@@H](C)O)[C@@H](C)CC)C(C)C)C(=O)N[C@@H](CC(N)=O)C(=O)N[C@@H](CCCCNC(=O)CC[C@H](NC(=O)CC[C@H](NC(=O)CC[C@H](NC(=O)CC[C@H](NC(=O)CCCCCCCCCCCCCCCCC(=O)O)C(=O)O)C(=O)O)C(=O)O)C(=O)O)C(=O)NC(C)(C)C(=O)N[C@H](C(=O)N[C@@H](CCCNC(=N)N)C(=O)N[C@@H](CCC(N)=O)C(=O)N[C@@H](CCCNC(=N)N)C(=O)N[C@@H](Cc1ccc(O)cc1)C(N)=O)[C@@H](C)O` [Compound 129, Y-Aib-E-G-T-F-T-S-D-Y-S-I-Aib-L-E-E-Q-A-Q-Aib-E-F-V-R-H-L-I-N-K(1,3)-Aib-T-R-Q-R-Y-NH2.C18DA-gGlu-gGlu-gGlu-gGlu(1,2)] (H-Y[Aib]EGTFTSDYSI[Aib]LEEQAQ[Aib]EFVRHLINK([γGlu-γGlu-γGlu-γGlu-C18 diacid])[Aib]TRQRY-NH2), for which the EC50 stood at 900 pM at hGLP1R (setting [2]); 2800 pM on hGLP1R (setting [3]); 400 pM at hGIPR (setting [4]); 7100 pM at hGIPR (100% human plasma, read-out: hGIPR 100% hP). Also, the solubility at 2 h in series [1] worked out at 5100 µg/mL.

`CC[C@H](C)[C@H](NC(=O)[C@H](CC(C)C)NC(=O)[C@H](Cc1c[nH]cn1)NC(=O)[C@H](CCCNC(=N)N)NC(=O)[C@@H](NC(=O)[C@H](Cc1ccccc1)NC(=O)[C@H](CCC(=O)O)NC(=O)C(C)(C)NC(=O)[C@H](CCC(N)=O)NC(=O)[C@H](C)NC(=O)[C@H](CCC(=O)O)NC(=O)[C@H](CCC(=O)O)NC(=O)[C@H](CCC(=O)O)NC(=O)[C@H](CC(C)C)NC(=O)C(C)(C)NC(=O)[C@@H](NC(=O)[C@H](CO)NC(=O)[C@H](Cc1ccc(O)cc1)NC(=O)[C@H](CC(=O)O)NC(=O)[C@H](CO)NC(=O)[C@@H](NC(=O)[C@H](Cc1ccccc1)NC(=O)[C@@H](NC(=O)CNC(=O)[C@H](CCC(=O)O)NC(=O)C(C)(C)NC(=O)[C@@H](N)Cc1ccc(O)cc1)[C@@H](C)O)[C@@H](C)O)[C@@H](C)CC)C(C)C)C(=O)N[C@@H](CC(N)=O)C(=O)N[C@@H](CCCCNC(=O)COCCOCCNC(=O)COCCOCCNC(=O)CC[C@H](NC(=O)CCCCCCCCCCCCCCCCC(=O)O)C(=O)O)C(=O)NC(C)(C)C(=O)N[C@H](C(=O)N[C@@H](CCCNC(=N)N)C(=O)N[C@@H](CCC(N)=O)C(=O)N[C@@H](CCCNC(=N)N)C(=O)N[C@@H](Cc1ccc(O)cc1)C(N)=O)[C@@H](C)O` [Compound 130, Y-Aib-E-G-T-F-T-S-D-Y-S-I-Aib-L-E-E-E-A-Q-Aib-E-F-V-R-H-L-I-N-K(1,3)-Aib-T-R-Q-R-Y-NH2.C18DA-gGlu-OEG-OEG(1,2)]: the EC50 at hGLP1R (setting [2]) and at hGIPR (setting [4]) was 500 pM throughout. Also, the solubility at 2 h in series [1] stood at 5000 µg/mL.

Regarding `CC[C@H](C)[C@H](NC(=O)[C@H](CC(C)C)NC(=O)[C@H](Cc1c[nH]cn1)NC(=O)[C@H](CCCNC(=N)N)NC(=O)[C@@H](NC(=O)[C@H](Cc1ccccc1)NC(=O)[C@H](C)NC(=O)C(C)(C)NC(=O)[C@H](CCC(N)=O)NC(=O)[C@H](C)NC(=O)[C@H](CCC(N)=O)NC(=O)[C@H](CCCCN)NC(=O)[C@H](CCC(=O)O)NC(=O)[C@H](CC(C)C)NC(=O)C(C)(C)NC(=O)[C@@H](NC(=O)[C@H](CO)NC(=O)[C@H](Cc1ccc(O)cc1)NC(=O)[C@H](CC(=O)O)NC(=O)[C@H](CO)NC(=O)[C@@H](NC(=O)[C@H](Cc1ccccc1)NC(=O)[C@@H](NC(=O)CNC(=O)[C@H](CCC(=O)O)NC(=O)C(C)(C)NC(=O)[C@@H](N)Cc1ccc(O)cc1)[C@@H](C)O)[C@@H](C)O)[C@@H](C)CC)C(C)C)C(=O)N[C@@H](CC(N)=O)C(=O)N[C@@H](CCCCNC(=O)[C@@H](N)CCCCNC(=O)CC[C@H](NC(=O)CC[C@H](NC(=O)CC[C@H](NC(=O)CC[C@H](NC(=O)CC[C@H](NC(=O)CCCCCCCCCCCCCCCCC(=O)O)C(=O)O)C(=O)O)C(=O)O)C(=O)O)C(=O)O)C(=O)NC(C)(C)C(=O)N[C@H](C(=O)N[C@@H](CCCNC(=N)N)C(=O)N[C@@H](CCC(N)=O)C(=O)N[C@@H](CCCNC(=N)N)C(=O)N[C@@H](Cc1ccc(O)cc1)C(N)=O)[C@@H](C)O` [Compound 141, Y-Aib-E-G-T-F-T-S-D-Y-S-I-Aib-L-E-K-Q-A-Q-Aib-A-F-V-R-H-L-I-N-K(1,3)-Aib-T-R-Q-R-Y-NH2.C18DA-gGlu-gGlu-gGlu-gGlu-gGlu-eLys(1,2)], the EC50 came out at 800 pM on hGLP1R (setting [2]) and 100 pM on hGIPR (setting [4]). In addition, the solubility in series [1] (read-out: Solubility) came out at 1100 µg/mL.

Regarding `CC[C@H](C)[C@H](NC(=O)[C@H](CC(C)C)NC(=O)[C@H](Cc1c[nH]cn1)NC(=O)[C@H](CCCNC(=N)N)NC(=O)[C@@H](NC(=O)[C@H](Cc1ccccc1)NC(=O)[C@H](CCC(=O)O)NC(=O)C(C)(C)NC(=O)[C@H](CCC(N)=O)NC(=O)[C@H](C)NC(=O)[C@H](CCC(N)=O)NC(=O)[C@H](CCCCN)NC(=O)[C@H](CCC(=O)O)NC(=O)[C@H](CC(C)C)NC(=O)C(C)(C)NC(=O)[C@@H](NC(=O)[C@H](CO)NC(=O)[C@H](Cc1ccc(O)cc1)NC(=O)[C@H](CC(=O)O)NC(=O)[C@H](CO)NC(=O)[C@@H](NC(=O)[C@H](Cc1ccccc1)NC(=O)[C@@H](NC(=O)CNC(=O)[C@H](CCC(=O)O)NC(=O)C(C)(C)NC(=O)[C@@H](N)Cc1ccc(O)cc1)[C@@H](C)O)[C@@H](C)O)[C@@H](C)CC)C(C)C)C(=O)N[C@@H](CC(N)=O)C(=O)N[C@@H](CCCCNC(=O)[C@@H](N)CCCCNC(=O)CC[C@H](NC(=O)CC[C@H](NC(=O)CC[C@H](NC(=O)CC[C@H](NC(=O)CC[C@H](NC(=O)CC[C@H](NC(=O)CCCCCCCCCCCCCCCCC(=O)O)C(=O)O)C(=O)O)C(=O)O)C(=O)O)C(=O)O)C(=O)O)C(=O)NC(C)(C)C(=O)N[C@H](C(=O)N[C@@H](CCCNC(=N)N)C(=O)N[C@@H](CCC(N)=O)C(=O)N[C@@H](CCCNC(=N)N)C(=O)N[C@@H](Cc1ccc(O)cc1)C(N)=O)[C@@H](C)O` [Compound 145, Y-Aib-E-G-T-F-T-S-D-Y-S-I-Aib-L-E-K-Q-A-Q-Aib-E-F-V-R-H-L-I-N-K(1,3)-Aib-T-R-Q-R-Y-NH2.C18DA-gGlu-gGlu-gGlu-gGlu-gGlu-gGlu-eLys(1,2)], the EC50 stood at 500 pM at hGLP1R (setting [2]), 1800 pM on hGLP1R (setting [3]) and 300 pM on hGIPR (setting [4]). In addition, the solubility at 2 h in series [1] was 5000 µg/mL.
